Laboratory results as given in US4133876A, “Antibiotic A-32887 and process for production thereof” (Eli Lilly and Company, priority 1977, dated 1979).

How the values were obtained:
[1] = tested on: coccidia; assay: Feeding experiments in young chickens challenged with coccidia; assay type: in vivo, Eimeria species; conditions: feed levels as low as 40 ppm
[2] = Ruminal VFA in fistulated feed-lot cattle (Table XV); assay type: in vivo; conditions: 30 g/ton, 24-day treatment
Excerpt: The procedure used in testing cattle in this manner is also described in Raun's U.S. Pat. No. 3,839,557 (see Example 9). Table XV summarizes the results of such a test with A-32887 (Na-K salt) wherein five feed-lot cattle weighing approximately 425 kg. were in each group and the mean percent increases in ruminal propionate concentration were averaged over four analyses in a 24-day treatment period.

[3] = tested on: acute swine dysentery; assay: Swine dysentery test in pigs (Table XVII); assay type: in vivo
Method: In another aspect the A-32887 compounds are useful in the prevention and control of swine dysentery. A preferred method of administration to swine is by incorporation of an appropriate amount of an A-32887 compound into the feed ration. […] In this test, groups of four pigs were challenged orally with 5.0 ml of a colon-content/tissue suspension prepared from pigs suffering from acute swine dysentery. Treated pigs were challenged 24 hours after initiating feed treatment. The test was carried out over a period of 26 days, observing pigs daily, and weighing them weekly and on day 26.
*Fecal material for each group was rated daily with 0=normal, 1=slight
blood or mucus, 2=moderate blood or mucus, 3=marked blood or mucus. Index
is the total score per treatment for 25 days.

[4] = tested on: powdery mildew; assay: Powdery mildew disease in bean plants, spray; assay type: in vivo; conditions: 400 ppm spray
Excerpt: The A-32887 compounds are also useful in the treatment of certain plant diseases.

[5] = tested on: E. tenella and E. maxima; assay: Anticoccidial activity in chicks (Table XI); assay type: in vivo; parameters: Average Lesion Score, Total Intestinal / Average Lesion Score, Cecal: scale not given here; conditions: for Mortality: due to coccidiosis; for Feed/Gain: pens without deaths only; for Average Weight Gain: per survivor
Method: ^1 70,000 oocysts/bird of each of E. tenella and E. maxima
^2 Infected 48 hours postmedication; terminated seven days
^3 Four replicates; five birds/replicate
^6 Pens without deaths only

[6] = tested on: guinea pig left atria; assay: Cardiac contractility of guinea pig left atria; conditions: 10^-5 molar; percentage of maximal force elicited by a challenge dose of norepinephrine
Excerpt: The A-32887 compounds are potential cardiotonic agents. In tests using guinea pig left atria, A-32887 (Na-K salt) increased cardiac contractility. Response to this test is expressed as a percentage of the maximal force that could be elicited by a challenge dose of norepinephrine. A-32887 (Na-K salt), at a 10^-5 molar concentration, increased cardiac contractility by 28.0 ± 7.1 percent.

[7] = tested on: E. tenella, E. maxima and E. acervulina; assay: Anticoccidial activity in chicks (Table XIII); assay type: in vivo; parameters: Average Lesion Score, Intestinal / Average Lesion Score, Cecal: scale not given here; conditions: for Percent Mortality: due to coccidiosis; for Percent Weight Gain: per survivor; for Oocysts/Bird: total days 5, 6 and 7 post-inoculation; for Feed/Gain: pens without deaths only
Excerpt: ^2 Six replicates; 5 birds/each
^5 Pens without deaths, only
^6 Total days 5, 6 and 7 post-inoculation

[8] = Acute toxicity, intraperitoneal, mice; assay type: in vivo; conditions: intraperitoneally
[9] = Ruminal propionate in sheep (Table XVI); assay type: in vivo; conditions: 15 g/ton, 19-day treatment, control 26.5
Excerpt: Table XVI summarizes the results of a similar test in sheep with A-32887 (Na-K salt) wherein four sheep were in each group and the mean percent increases in ruminal propionate concentration were averaged over four analyses in a 19-day treatment period.

[10] = tested on: E. tenella and E. acervulina; assay: Anticoccidial activity in chicks (Table XII); assay type: in vivo; parameters: Average Lesion Score, Intestinal / Average Lesion Score, Cecal: scale not given here; conditions: for Oocysts Per Bird: days 7-9; for Percent Mortality: due to coccidiosis; for Percent Weight Gain: normal controls = 100%
Method: ^1 6 replicates; 5 birds each
^2 Infection inoculum 48 hours post-medication onset
^4 Normal controls = 100%

[11] = tested on: Mycoplasma gallisepticum; assay: In vitro broth-dilution studies, mycoplasma (Table X); assay type: cell-based
Excerpt: (§1) Activity against mycoplasma is another useful aspect of the antimicrobial activity of the A-32887 compounds. Mycoplasma species, also known as pleuropneumonia-like (PPLO) organisms, are pathogenic to man and various animals. Anti-mycoplasma agents are especially needed by the poultry industry. The MIC's of A-32887 (Na-K salt) against typical mycoplasma species, as determined by in vitro broth-dilution studies, are summarized in Table X: […]

[12] = tested on: Mycoplasma hyopneumoniae; assay: as above; assay type: cell-based
Excerpt: as §1

[13] = tested on: Mycoplasma hyorhinis; assay: as above; assay type: cell-based
Excerpt: as §1

[14] = tested on: Mycoplasma synoviae; assay: as above; assay type: cell-based
Excerpt: as §1

[15] = tested on: rumen flora; assay: Volatile-fatty-acid (VFA) production in treated vs control flasks (Table XIV)
[16] = tested on: Streptococcus sp.; assay: Standard agar-dilution assay, MIC (Table VI); assay type: cell-based
Excerpt: (§2) Antibiotic A-32887 inhibits the growth of pathogenic bacteria, especially gram-positive bacteria. Table VI summarizes the minimal inhibitory concentrations (MIC), as measured by standard agar-dilution assays, at which A-32887 (Na-K salt) inhibits certain bacteria.

[17] = tested on: Staphylococcus sp.; assay: Standard agar-dilution assay, MIC (Table VI); assay type: cell-based
Excerpt: as §2

[18] = tested on: Staphylococcus aureus 3055; assay: Standard agar-dilution assay, MIC (Table VI); assay type: cell-based
Excerpt: as §2

[19] = tested on: Pasteurella multocida (bovine); assay: Standard agar-dilution assay, MIC (Table VI); assay type: cell-based
Excerpt: as §2

[20] = tested on: Streptococcus faecalis; assay: Standard agar-dilution assay, MIC (Table VI); assay type: cell-based
Excerpt: as §2

[21] = tested on: ATPase; assay: ATPase inhibition in vitro using NaCl; assay type: biochemical
Excerpt: In yet another aspect, the A-32887 compounds are active as inhibitors of the enzyme ATPase. ATPase, an alkali-metal-sensitive enzyme found in cell membranes, is involved in the energy necessary for active transport. "Active transport" refers to the energy-requiring series of operations whereby intracellular and extracellular fluids maintain their compositions. Inhibitors of ATPase reduce the energy required for active transport.

[22] = Ionophore properties
[23] = tested on: Bacillus subtilis; assay: Conventional disc-diffusion method (Table VIII); assay type: cell-based; conditions: as Na-K salts, samples at 1 mg/ml
Method: (§3) The antimicrobial activity of two typical A-32887 acyl ester derivatives is compared with that of A-32887 (each as Na-K salts) in Table VIII. Activity against illustrative bacteria is measured by the conventional disc-diffusion method. In addition, the results of a conventional paper-disc agar-diffusion assay system (Plate Assay) against Bacillus subtilis ATCC 6633 are reported. The activity in this test is quantitated and uses a dried-broth reference standard which is assigned an arbitrary potency of 100 units/ml. The samples were assayed at 1 mg/ml.

[24] = tested on: Staphylococcus aureus; assay: Conventional disc-diffusion method (Table VIII); assay type: cell-based; conditions: as Na-K salts; samples at 1 mg/ml
Method: as §3

[25] = tested on: Micrococcus lutea; assay: Conventional disc-diffusion method (Table VIII); assay type: cell-based; conditions: as Na-K salts; samples at 1 mg/ml
Method: as §3

[26] = assay type: physicochemical; conditions: 80% aqueous dimethylformamide
Excerpt: Electrometric titration of A-32887 methyl ether derivative (Na salt) in 80% aqueous dimethylformamide indicates the presence of a titratable group with a pKa value of about 5.4.

[27] = tested on: Bacillus subtilis ATCC 6633; assay: Paper-disc agar-diffusion assay system (Plate Assay, Table VIII); assay type: cell-based; conditions: samples at 1 mg/ml, as Na-K salts; dried-broth reference standard = 100 units/ml
Method: as §3

## CO[C@H]1CC[C@H](OC2[C@@H](C)[C@@](C)(O)O[C@H]([C@H]3CC[C@H]([C@@H]4CC[C@H]([C@@]5(C)O[C@]6(O[C@H](C[C@@H]7O[C@](O)([C@@H](O)C(=O)O)[C@@H](C)[C@H](OC)[C@@]7(C)OC)C[C@@H](OC)[C@H]6C)[C@H](C)[C@H]5OC)O4)O3)[C@H]2C)O[C@@H]1C.[K+].[Na+] (stereo partly shown) [A-32887 (Na-K salt)]
[1]
  Mortality: decreases
  number of lesions: decreases
[2]; control 8.1
  Molar % Butyrate: 9.6 Molar %
[2]; control 17.4, * P<0.01
  Molar % Propionate: 27.1 Molar %
[2]; control 74.5, * P<0.01
  Molar % Acetate: 63.3 Molar %
[2]; control 79.9
  Total VFA: 79.6 mM/1.
[3]; 100 g/ton in feed, 26 days
  Final-Average Wt. per Pig: 30.3 lbs
  No. Died per No. in Group: 0/4
  No. with Colon Lesions/No. in Group: 2/4
[3]; 100 g/ton, total score per treatment for 25 days (0=normal to 3=marked blood or mucus)
  Diarrhea Index: 22
[4]
  inhibition of powdery mildew disease: inhibits powdery mildew disease
[5]; 40 ppm
  Average Lesion Score, Cecal: 1.6
  Average Lesion Score, Total Intestinal: 4.9
  Feed/Gain: 1.89
  Average Weight Gain: 176 g
[5]; 40 ppm in feed
  Mortality: 0
[5]; 60 ppm
  Average Lesion Score, Cecal: 0.6
  Average Lesion Score, Total Intestinal: 5.9
  Feed/Gain: 1.83
  Average Weight Gain: 155 g
[5]; 60 ppm in feed
  Mortality: 0
[5]; 80 ppm
  Average Lesion Score, Cecal: 0.3
  Average Lesion Score, Total Intestinal: 3.0
  Feed/Gain: 1.83
  Average Weight Gain: 182 g
[5]; 80 ppm in feed
  Mortality: 0
[5]; 100 ppm
  Average Lesion Score, Cecal: 0
  Average Lesion Score, Total Intestinal: 1.6
  Feed/Gain: 1.87
  Average Weight Gain: 159 g
[5]; 100 ppm in feed
  Mortality: 0
[6]
  increase in cardiac contractility: 28.0 ± 7.1%
[7]; 25 ppm
  Average Lesion Score, Cecal: 3.9
  Average Lesion Score, Intestinal: 1.1
  Percent Mortality: 35%
  Percent Weight Gain: 57%
  Oocysts/Bird: 64.83 1×10^6
[7]; 50 ppm
  Average Lesion Score, Cecal: 3.8
  Average Lesion Score, Intestinal: 1.8
  Percent Mortality: 0%
  Feed/Gain: 1.67
  Percent Weight Gain: 79%
  Oocysts/Bird: 35.78 1×10^6
[7]; 75 ppm
  Average Lesion Score, Cecal: 2.0
  Average Lesion Score, Intestinal: 0.9
  Percent Mortality: 0%
  Feed/Gain: 1.49
  Percent Weight Gain: 90%
  Oocysts/Bird: 24.35 1×10^6
[7]; 100 ppm
  Average Lesion Score, Cecal: 0.1
  Average Lesion Score, Intestinal: 0
  Percent Mortality: 0%
  Feed/Gain: 1.50
  Percent Weight Gain: 93%
  Oocysts/Bird: 6.49 1×10^6
[8]
  LD50: 37.5 mg/kg × 1
[9]
  Molar % Propionate: 29.5 Molar %
[10]; 62 ppm
  Average Lesion Score, Cecal: 0.1
  Average Lesion Score, Intestinal: 0.9
  Oocysts Per Bird: 16.40 1×10^6
  Percent Mortality: 0%
  Percent Weight Gain: 97%
[10]; 77 ppm
  Average Lesion Score, Cecal: 0
  Average Lesion Score, Intestinal: 0.7
  Oocysts Per Bird: 5.48 1×10^6
  Percent Mortality: 0%
  Percent Weight Gain: 90%
[10]; 100 ppm
  Average Lesion Score, Cecal: 0.1
  Average Lesion Score, Intestinal: 0.6
  Oocysts Per Bird: 1.28 1×10^6
  Percent Mortality: 0%
  Percent Weight Gain: 85%
[10]; 121 ppm
  Average Lesion Score, Cecal: 0
  Average Lesion Score, Intestinal: 0.3
  Oocysts Per Bird: 0.4 1×10^6
  Percent Mortality: 0%
  Percent Weight Gain: 73%
[11]
  MIC: 12.5 µg/mL
[12]
  MIC: 6.25 µg/mL
[13]
  MIC: 25.0 µg/mL
[14]
  MIC: 3.12 µg/mL
[15]; 1 mcg/ml
  Ratio of Treated to Control, Total VFA mM/1.: 0.7498
[15]; 10 mcg/ml
  Ratio of Treated to Control, Molar % Acetate: 0.8857
  Ratio of Treated to Control, Molar % Butyrate: 0.7012
  Ratio of Treated to Control, Total VFA mM/1.: 1.0086
[15]; 10 mcg/ml, * P<0.01
  Ratio of Treated to Control, Molar % Propionate: 1.2919
[16]
  MIC: 3.12 µg/mL
[17]
  MIC: 1.56 µg/mL
[18]
  MIC: 6.25 µg/mL
[19]
  MIC: 50.00 µg/mL
[20]
  MIC: 6.25 µg/mL
[21]
  ATPase inhibition: inhibit ATPase

## CO[C@H]1CC[C@H](OC2[C@@H](C)[C@@](C)(O)O[C@H]([C@H]3CC[C@H]([C@@H]4CC[C@H]([C@@]5(C)O[C@]6(O[C@H](C[C@@H]7O[C@](O)([C@@H](O)C(=O)O)[C@@H](C)[C@H](OC)[C@@]7(C)OC)C[C@@H](OC)[C@H]6C)[C@H](C)[C@H]5OC)O4)O3)[C@H]2C)O[C@@H]1C.[K+].[Na+] (stereo partly shown) [A-32887]
[22]
  ion-binding and ion-transport properties: exhibits ion-binding and iontransport properties
[22]; natural and artificial membranes
  cation permeability of membranes: alters the cation permeability
[23]; Minimal media
  Activity by disc-diffusion, Bacillus subtilis*: 30
[23]
  Activity by disc-diffusion, Bacillus subtilis: 18
[24]
  Activity by disc-diffusion, Staphylococcus aureus: 16
[25]
  Activity by disc-diffusion, Micrococcus lutea: 16
[26]
  pKa: 4.60
[27]
  Plate Assay: 1350 units/ml
